Measurements published in patent US10633419B2, “Immunomodulators” (BRISTOL-MYERS SQUIBB COMPANY, priority 2014, dated 2020).
Like-named read-outs stand apart in the source and are kept apart here. Starred links: 1 amine or outer side, 2 acyl side, 3 side chain; linkers in the order of their positions; H or OH if unused. Positions of bridges follow the written chain, without caps; N, C: chain ends. Non-standard residues stand in square brackets, D forms with d. Residues, ends and D or L forms follow the SMILES beside them. Groups on a side chain read outwards from the residue. *: point of attachment. δOrn(Nα-Octadecanedioyl) = O=C(O)CCCCCCCCCCCCCCCCC(=O)N[C@@H](CCCN*)C(=O)O; X6 = O=C(O)CCCCCCCCCCCCCCCCC(=O)N[C@@H](CCC(=O)NCCCOCCOCCOCCCN*)C(=O)O; Ala(1-CH2COOH-inden-3-yl) = N[C@@H](CC1=CC(CC(=O)O)c2ccccc21)C(=O)O; Trp(1-CH2COOH) = N[C@@H](Cc1cn(CC(=O)O)c2ccccc12)C(=O)O; X9 = O=C(O)CCCCCCCCCCCCCCCCC(=O)N[C@@H](CCN*)C(=O)O; Phe(4-F) = N[C@@H](Cc1ccc(F)cc1)C(=O)O; γGlu = O=C(O)[C@H](CCC(=O)[*:2])N[*:1]; βAsp = O=C(O)[C@H](CC(=O)[*:2])N[*:1]; NH(CH2)12COOH = O=C(O)CCCCCCCCCCCCN*; Palmitoyl = CCCCCCCCCCCCCCCC(=O)*; Hyp = O=C(O)[C@@H]1C[C@@H](O)CN1; Myristoyl = CCCCCCCCCCCCCC(=O)*; NMeNle = CCCC[C@H](NC)C(=O)O; Pip = O=C(O)[C@@H]1CCCCN1; NMeA = CN[C@@H](C)C(=O)O; Pra = C#CC[C@H](N)C(=O)O; Aun = NCCCCCCCCCCC(=O)O; Dab = NCC[C@H](N)C(=O)O; Dap = NC[C@H](N)C(=O)O; GABA = NCCCC(=O)O

Molecular target: T1, PD-L1 (Homo sapiens, UniProt Q9NZQ7)
T1 construct: hPDL1(19-239)-TVMV-His; made in house; host or cells: HEK293T
T1 sequence (Q9NZQ7 with tags, fused parts or gaps): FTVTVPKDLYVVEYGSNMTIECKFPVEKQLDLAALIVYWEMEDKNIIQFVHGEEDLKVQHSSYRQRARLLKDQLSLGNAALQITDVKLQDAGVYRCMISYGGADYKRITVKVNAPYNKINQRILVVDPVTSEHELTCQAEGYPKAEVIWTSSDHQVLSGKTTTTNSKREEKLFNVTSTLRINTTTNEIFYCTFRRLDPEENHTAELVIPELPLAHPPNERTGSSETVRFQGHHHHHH
Experiment: PD-1/PD-L1 Homogenous Time-Resolved Fluorescence (HTRF) binding assay (PD-1-Ig/PD-L1-His)
Conditions: inhibition of PD-1-Ig binding to PD-L1-TVMV-His, read-out: HTRF IC50
How it was run: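 HTRF competition in dPBS with 0.1% BSA and 0.05% Tween-20: 20 nM PD-1-Ig added after 15 min compound pre-incubation with 10 nM PD-L1-His, then another 15 min. Signal (665/620 nm) after 30 min with APC anti-His (20 nM) and Eu anti-Ig (1 nM).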

SMILES	IC50 (value given as number) [nM]	IC50 (value given as range class) [nM]
CCCC[C@H]1C(=O)N(C)[C@@H](CCCC)C(=O)N[C@@H](CC(C)C)C(=O)N[C@H](C(=O)NCC(=O)NCC(=O)NCC(=O)NCCCCCCCCCCC(=O)O)CSCC(=O)N[C@@H](Cc2ccc(O)cc2)C(=O)N(C)[C@@H](C)C(=O)N[C@@H](CC(=O)O)C(=O)N2CCC[C@H]2C(=O)N[C@@H](CN)C(=O)N[C@@H](CCC(N)=O)C(=O)N2C[C@H](O)C[C@H]2C(=O)N[C@@H](Cc2c[nH]c3ccccc23)C(=O)N[C@@H](CCN)C(=O)N[C@@H](Cc2cn(CC(=O)O)c3ccccc23)C(=O)N1C [Example 11095] ({CH2CO}-Y[NMeA]DP[Dap]Q[Hyp]W[Dab][Trp(1-CH2COOH)][NMeNle][NMeNle]LCGGG[Aun]-OH; thioether N-14)		0.3 to 9.9
CCCC[C@H]1C(=O)N(C)[C@@H](CCCC)C(=O)N[C@@H](CC(C)C)C(=O)N[C@H](C(=O)NCCCCCCCCCCC(=O)NCCCCCCCCCCC(=O)O)CSCC(=O)N[C@@H](Cc2ccc(O)cc2)C(=O)N(C)[C@@H](C)C(=O)N[C@@H](CC(N)=O)C(=O)N2CCC[C@H]2C(=O)N[C@@H](CN)C(=O)N[C@@H](CCC(N)=O)C(=O)N2C[C@H](O)C[C@H]2C(=O)N[C@@H](Cc2c[nH]c3ccccc23)C(=O)N[C@@H](CO)C(=O)N[C@@H](Cc2cn(CC(=O)O)c3ccccc23)C(=O)N1C [Example 11089] ({CH2CO}-Y[NMeA]NP[Dap]Q[Hyp]WS[Trp(1-CH2COOH)][NMeNle][NMeNle]LC[Aun][Aun]-OH; thioether N-14)		10 to 99
CCCCCCCCCCCCCCCC(=O)NCCCC[C@H](NC(=O)[C@H](CO)NC(=O)CNC(=O)CNC(=O)CNC(=O)[C@@H]1CSCC(=O)N[C@@H](Cc2ccc(O)cc2)C(=O)N(C)[C@@H](C)C(=O)N[C@@H](CC(N)=O)C(=O)N2CCC[C@H]2C(=O)N[C@@H](CCN)C(=O)N[C@@H](CC(C)C)C(=O)N2C[C@H](O)C[C@H]2C(=O)N[C@@H](Cc2c[nH]c3ccccc23)C(=O)N[C@@H](CO)C(=O)N[C@@H](Cc2c[nH]c3ccccc23)C(=O)N(C)[C@@H](CCCC)C(=O)N(C)[C@@H](CCCC)C(=O)N[C@@H](CCCNC(=N)N)C(=O)N1)C(N)=O [Example 11024] ({CH2CO}-Y[NMeA]NP[Dab]L[Hyp]WSW[NMeNle][NMeNle]RCGGGSK(Palmitoyl)-NH2; thioether N-14)		100 to 1600
CCCC[C@H]1C(=O)N(C)[C@@H](CCCC)C(=O)N[C@@H](CC(C)C)C(=O)N[C@H](C(=O)NCCCCCCCCCCC(=O)N[C@@H](CC(=O)O)C(N)=O)CSCC(=O)N[C@@H](Cc2ccc(O)cc2)C(=O)N(C)[C@@H](C)C(=O)N[C@@H](CC(N)=O)C(=O)N2CCC[C@H]2C(=O)N[C@@H](Cc2cnc[nH]2)C(=O)N[C@@H](CCC(=O)O)C(=O)N2C[C@H](O)C[C@H]2C(=O)N[C@@H](Cc2c[nH]c3ccccc23)C(=O)N[C@@H](CCN)C(=O)N[C@@H](Cc2cn(CC(=O)O)c3ccccc23)C(=O)N1C [Example 11066] ({CH2CO}-Y[NMeA]NPHE[Hyp]W[Dab][Trp(1-CH2COOH)][NMeNle][NMeNle]LC[Aun]D-NH2; thioether N-14)		0.3 to 9.9
CCCC[C@H]1C(=O)N(C)[C@@H](CCCC)C(=O)N[C@@H](CC(C)C)C(=O)N[C@H](C(=O)NCC(=O)NCCCCCCCCCCC(=O)O)CSCC(=O)N[C@@H](Cc2ccc(O)cc2)C(=O)N(C)[C@@H](C)C(=O)N[C@@H](CC(N)=O)C(=O)N2CCC[C@H]2C(=O)N[C@@H](Cc2cnc[nH]2)C(=O)N[C@@H](CCC(=O)O)C(=O)N2C[C@H](O)C[C@H]2C(=O)N[C@@H](Cc2c[nH]c3ccccc23)C(=O)N[C@@H](CCN)C(=O)N[C@@H](CC2=CC(CC(=O)O)c3ccccc32)C(=O)N1C (stereo partly shown) [Example 11077] ({CH2CO}-Y[NMeA]NPHE[Hyp]W[Dab][Ala(1-CH2COOH-inden-3-yl)][NMeNle][NMeNle]LCG[Aun]-OH; thioether N-14)		0.3 to 9.9
CCCCCCCCCCCCCC(=O)N[C@@H](CCC(=O)NCCCC[C@H](NC(=O)CNC(=O)CNC(=O)CNC(=O)CNC(=O)[C@@H]1CSCC(=O)N[C@@H](Cc2ccc(O)cc2)C(=O)N(C)[C@@H](C)C(=O)N[C@@H](CC(N)=O)C(=O)N2CCC[C@H]2C(=O)N[C@@H](Cc2cnc[nH]2)C(=O)N[C@@H](CC(C)C)C(=O)N2C[C@H](O)C[C@H]2C(=O)N[C@@H](Cc2c[nH]c3ccccc23)C(=O)N[C@@H](CO)C(=O)N[C@@H](Cc2c[nH]c3ccccc23)C(=O)N(C)[C@@H](CCCC)C(=O)N(C)[C@@H](CCCC)C(=O)N[C@@H](CCCNC(=N)N)C(=O)N1)C(N)=O)C(=O)O [Example 11114] ({CH2CO}-Y[NMeA]NPHL[Hyp]WSW[NMeNle][NMeNle]RCGGGGK([γGlu-Myristoyl])-NH2; thioether N-14)		100 to 1600
CCCC[C@H]1C(=O)N(C)[C@@H](CCCC)C(=O)N[C@@H](CC(C)C)C(=O)N[C@H](C(=O)NCC(=O)N[C@@H](CC(=O)O)C(=O)NCCCOCCOCCOCCCNC(=O)CC[C@H](NC(=O)CCCCCCCCCCCCCCCCC(=O)O)C(=O)O)CSCC(=O)N[C@@H](Cc2ccc(F)cc2)C(=O)N2CCCC[C@H]2C(=O)N[C@@H](CC(=O)O)C(=O)N2CCC[C@H]2C(=O)N[C@@H](CN)C(=O)N[C@@H](CCC(=O)O)C(=O)N2C[C@H](O)C[C@H]2C(=O)N[C@@H](Cc2c[nH]c3ccccc23)C(=O)N[C@@H](CCN)C(=O)N[C@@H](Cc2cn(CC(=O)O)c3ccccc23)C(=O)N1C [Example 11264] ({CH2CO}-[Phe(4-F)][Pip]DP[Dap]E[Hyp]W[Dab][Trp(1-CH2COOH)][NMeNle][NMeNle]LCGD-X6; thioether N-14)		0.3 to 9.9
CCCC[C@H]1C(=O)N(C)[C@@H](CCCC)C(=O)N[C@@H](CC(C)C)C(=O)N[C@H](C(=O)NCC(=O)NCC(=O)N[C@@H](CC(=O)O)C(=O)NCCCCCCCCCCCCC(=O)O)CSCC(=O)N[C@@H](Cc2ccc(O)cc2)C(=O)N(C)[C@@H](C)C(=O)N[C@@H](CC(=O)O)C(=O)N2CCC[C@H]2C(=O)N[C@@H](Cc2cnc[nH]2)C(=O)N[C@@H](CCCCN)C(=O)N2C[C@H](O)C[C@H]2C(=O)N[C@@H](Cc2c[nH]c3ccccc23)C(=O)N[C@@H](CCCCN)C(=O)N[C@@H](Cc2cn(CC(=O)O)c3ccccc23)C(=O)N1C [Example 11220] ({CH2CO}-Y[NMeA]DPHK[Hyp]WK[Trp(1-CH2COOH)][NMeNle][NMeNle]LCGGD-{NH(CH2)12COOH}; thioether N-14)		10 to 99

Second part, the molecule after the results:

IC50 (value given as number) [nM]	IC50 (value given as range class) [nM]	SMILES
3.8		CCCC[C@H]1C(=O)N(C)[C@@H](CCCC)C(=O)N[C@@H](CC(C)C)C(=O)N[C@H](C(=O)NCC(=O)N[C@@H](CC(=O)NCCCC(=O)NCC[C@H](NC(=O)CCCCCCCCCCCCCCCCC(=O)O)C(=O)O)C(=O)O)CSCC(=O)N[C@@H](Cc2ccc(O)cc2)C(=O)N2CCCC[C@H]2C(=O)N[C@@H](CC(N)=O)C(=O)N2CCC[C@H]2C(=O)N[C@@H](CN)C(=O)N[C@@H](CC(C)C)C(=O)N2C[C@H](O)C[C@H]2C(=O)N[C@@H](Cc2c[nH]c3ccccc23)C(=O)N[C@@H](CCN)C(=O)N[C@@H](Cc2cn(CC(=O)O)c3ccccc23)C(=O)N1C [Example 13162] ({CH2CO}-Y[Pip]NP[Dap]L[Hyp]W[Dab][Trp(1-CH2COOH)][NMeNle][NMeNle]LCG[βAsp][GABA]-X9; thioether N-14)
	10 to 99	CCCC[C@H]1C(=O)N(C)[C@@H](CCCC)C(=O)N[C@@H](CC(C)C)C(=O)N[C@H](C(=O)NCC(=O)N[C@@H](CC(=O)NCCC[C@H](NC(=O)CCCCCCCCCCCCCCCCC(=O)O)C(=O)O)C(=O)O)CSCC(=O)N[C@@H](Cc2ccc(F)cc2)C(=O)N2CCCC[C@H]2C(=O)N[C@@H](CC(=O)O)C(=O)N2CCC[C@H]2C(=O)N[C@@H](CN)C(=O)N[C@@H](CC(C)C)C(=O)N2C[C@H](O)C[C@H]2C(=O)N[C@@H](Cc2c[nH]c3ccccc23)C(=O)N[C@@H](CCN)C(=O)N[C@@H](Cc2cn(CC(=O)O)c3ccccc23)C(=O)N1C [Example 13145] ({CH2CO}-[Phe(4-F)][Pip]DP[Dap]L[Hyp]W[Dab][Trp(1-CH2COOH)][NMeNle][NMeNle]LCGD(δOrn(Nα-Octadecanedioyl))-OH; thioether N-14)
	10 to 99	CCCC[C@H]1C(=O)N(C)[C@@H](CCCC)C(=O)N[C@@H](CC(C)C)C(=O)N[C@H](C(=O)NCC(=O)N[C@@H](CC(=O)NCC[C@H](NC(=O)CCCCCCCCCCCCCCCCC(=O)O)C(=O)O)C(=O)O)CSCC(=O)N[C@@H](Cc2ccc(O)cc2)C(=O)N2CCCC[C@H]2C(=O)N[C@@H](CC(N)=O)C(=O)N2CCC[C@H]2C(=O)N[C@@H](CN)C(=O)N[C@@H](CC(C)C)C(=O)N2C[C@H](O)C[C@H]2C(=O)N[C@@H](Cc2c[nH]c3ccccc23)C(=O)N[C@@H](CCN)C(=O)N[C@@H](Cc2cn(CC(=O)O)c3ccccc23)C(=O)N1C [Example 13144] ({CH2CO}-Y[Pip]NP[Dap]L[Hyp]W[Dab][Trp(1-CH2COOH)][NMeNle][NMeNle]LCGD(X9)-OH; thioether N-14)
	0.3 to 9.9	C#CC[C@H](NC(=O)[C@@H]1CSCC(=O)N[C@@H](Cc2ccc(O)cc2)C(=O)N(C)[C@@H](C)C(=O)N[C@@H](CC(N)=O)C(=O)N2CCC[C@H]2C(=O)N[C@@H](CN)C(=O)N[C@@H](CC(C)C)C(=O)N2C[C@H](O)C[C@H]2C(=O)N[C@@H](Cc2c[nH]c3ccccc23)C(=O)N[C@@H](CCN)C(=O)N[C@@H](Cc2cn(CC(=O)O)c3ccccc23)C(=O)N(C)[C@@H](CCCC)C(=O)N(C)[C@@H](CCCC)C(=O)N[C@@H](CC(=O)O)C(=O)N1)C(=O)O [INT130AH] ({CH2CO}-Y[NMeA]NP[Dap]L[Hyp]W[Dab][Trp(1-CH2COOH)][NMeNle][NMeNle]DC[Pra]-OH; thioether N-14)
	10 to 99	CCCC[C@H]1C(=O)N2C[C@H](O)C[C@@H]2C(=O)N[C@@H](CC(=O)O)C(=O)N[C@@H](C(C)C)C(=O)N(C)[C@@H](Cc2ccccc2)C(=O)N[C@@H](CC(=O)O)C(=O)N2CCC[C@@H]2C(=O)N[C@@H](Cc2c[nH]c3ccccc23)C(=O)N[C@@H](Cc2ccc(O)cc2)C(=O)N[C@@H](CC(C)C)C(=O)N[C@H](C(=O)NCC(=O)N[C@@H](Cc2cn(CC[C@H](NC(=O)CCCCCCCCCCCCCCC(=O)O)C(=O)O)nn2)C(N)=O)CSCC(=O)N[C@@H](Cc2cc(F)c(F)c(F)c2)C(=O)N(C)[C@@H](Cc2ccccc2)C(=O)N1C [Example 14074]
